Test system: HCV 1b-Con-1 replicon
Assay: HCV 1b-Con-1 replicon assay (luciferase reporter gene, HuH-7 cells)
Assay type: cell-based, Hepatitis C virus (HCV) genotype 1b-Con1
Details: Hepatitis C virus, Huh-7, luciferase reporter gene activity in the replicon, in the presence of 5% FBS

**Q.** With `COC(=O)N[C@H](C(=O)N1CCC[C@H]1C(=O)Nc1ccc(CN(Cc2ccc(NC(=O)[C@@H]3CCCN3C(=O)[C@H](NC(=O)OC)c3ccccc3)cc2)c2ccccc2)cc1)C(C)C` [Example 70, N-(methoxycarbonyl)-L-valyl-N-(4-{[{4-[(1-{(2R)-2-[(methoxycarbonyl)amino]-2-phenylacetyl}-L-prolyl)amino]benzyl}(phenyl)amino]methyl}phenyl)-L-prolinamide] as the compound, how does the EC50 read?
**A.** The EC50 was under 1 nM.

**Q.** With `CC[C@H](NC(=O)OC)C(=O)N1CCC[C@H]1C(=O)Nc1ccc(CN(Cc2ccc(NC(=O)[C@@H]3CCCN3C(=O)[C@H](NC(=O)OC)c3ccccc3)cc2)c2ccccc2)cc1` [Example 71, methyl {(1R)-2-[(2S)-2-{[4-({[4-({[(2S)-1-{(2S)-2-[(methoxycarbonyl)amino]butanoyl}pyrrolidin-2-yl]carbonyl}amino)benzyl](phenyl)amino}methyl)phenyl]carbamoyl}pyrrolidin-1-yl]-2-oxo-1-phenylethyl}carbamate] as the compound, how does the EC50 read?
**A.** Its EC50 is under 1 nM.

**Q.** How did the EC50 turn out when `COC(=O)N[C@H](C(=O)N1CCC[C@H]1C(=O)Nc1ccc(CN(Cc2ccc(NC(=O)[C@@H]3CCCN3C(=O)[C@H](NC(=O)OC)c3ccccc3)cc2)c2ccccc2)cc1)[C@H]1CCOC1` [Example 72] was run?
**A.** The EC50 was under 1 nM.

**Q.** Which EC50 does the source give for `COC(=O)N[C@H](C(=O)N1CC(F)(F)C[C@H]1C(=O)Nc1ccc(CN(Cc2ccc(NC(=O)[C@@H]3CC(F)(F)CN3C(=O)[C@@H](NC(=O)OC)C(C)(C)C)cc2)c2ccccc2)cc1)C(C)(C)C` [Example 73] here?
**A.** Its EC50 is under 1 nM.

**Q.** Which EC50 does the source give for `COC(=O)N[C@H](C(=O)N1CCC[C@H]1C(=O)Nc1ccc(CN(Cc2ccc(NC(=O)[C@@H]3CCCN3C(=O)[C@H](NC(=O)OC(C)(C)C)c3ccccc3)cc2)c2ccccc2)cc1)C(C)(C)C` [Example 74, N-(methoxycarbonyl)-3-methyl-L-valyl-N-(4-{[{4-[(1-{(2R)-2-[(tert-butoxycarbonyl)amino]-2-phenylacetyl}-L-prolyl)amino]benzyl}(phenyl)amino]methyl}phenyl)-L-prolinamide] here?
**A.** Its EC50 is under 1 nM.

**Q.** How did the EC50 turn out when `CCN(CC)[C@@H](C(=O)N1CCC[C@H]1C(=O)Nc1ccc(CN(Cc2ccc(NC(=O)[C@@H]3CCCN3C(=O)[C@H](NC(=O)OC)c3ccccc3)cc2)c2ccccc2)cc1)c1ccccc1` [Example 75, methyl [(1R)-2-{(2S)-2-[(4-{[{-4-[({(2S)-1-[(2R)-2-(diethylamino)-2-phenylacetyl]pyrrolidin-2-yl}carbonyl)amino]benzyl}(phenyl)amino]methyl}phenyl)carbamoyl]pyrrolidin-1-yl}-2-oxo-1-phenylethyl]carbamate] was run?
**A.** Its EC50 is under 1 nM.

**Q.** For `COC(=O)N[C@@H](C(=O)N1CCC[C@H]1C(=O)Nc1ccc(CN(Cc2ccc(NC(=O)[C@@H]3CCCN3C(=O)[C@@H]3CCCO3)cc2)c2ccccc2)cc1)c1ccccc1` [Example 76, methyl {(1R)-2-oxo-1-phenyl-2-[(2S)-2-({4-[(phenyl{4-[({(2S)-1-[(2S)-tetrahydrofuran-2-ylcarbonyl]pyrrolidin-2-yl}carbonyl)amino]benzyl}amino)methyl]phenyl}carbamoyl)pyrrolidin-1-yl]ethyl}carbamate], which EC50 is on record?
**A.** Its EC50 is under 1 nM.

**Q.** `COC(=O)N[C@H](C(=O)N1CCC[C@H]1C(=O)Nc1ccc(CN(Cc2ccc(NC(=O)[C@@H]3CCCN3C(=O)[C@H](N)c3ccccc3)cc2)c2ccccc2)cc1)C(C)(C)C` [Example 77, N-(methoxycarbonyl)-3-methyl-L-valyl-N-[4-({[4-({1-[(2R)-2-amino-2-phenylacetyl]-L-proly}amino)benzyl](phenyl)amino}methyl)phenyl]-L-prolinamide] was tested. Which EC50 did it give?
**A.** The EC50 was under 1 nM.

**Q.** How did the EC50 turn out when `COC(=O)N[C@H](C(=O)N1CCC[C@H]1c1nc2cc(CN(Cc3ccc4[nH]c([C@@H]5CCCN5C(=O)[C@@H](NC(=O)OC)[C@H]5CCOC5)nc4c3)c3ccccc3)ccc2[nH]1)[C@H]1CCOC1` [Example 78, dimethyl {(phenylimino)bis[methanediyl-1H-benzimidazole-5,2-diyl(2S)pyrrolidine-2,1-diyl{(1S)-2-oxo-1-[(3R)-tetrahydrofuran-3-yl]ethane-2,1-diyl}]}biscarbamate] was run?
**A.** Its EC50 is under 1 nM.

**Q.** How did the EC50 turn out when `CC(=O)N[C@H](C(=O)N1CCC[C@H]1C(=O)Nc1ccc(CN(Cc2ccc(NC(=O)[C@@H]3CCCN3C(=O)[C@@H](NC(C)=O)C(C)(C)C)cc2)c2ccccc2)cc1)C(C)(C)C` [Example 79, (2S,2′S)-N,N′-[(phenylimino)bis(methanediylbenzene-4,1-diyl)]bis {1-[(2S)-2-(acetylamino)-3,3-dimethylbutanoyl]pyrrolidine-2-carboxamide}] was run?
**A.** The EC50 was 10 to 100 nM.

**Q.** With `CN(C)C(=O)N[C@H](C(=O)N1CCC[C@H]1C(=O)Nc1ccc(CN(Cc2ccc(NC(=O)[C@@H]3CCCN3C(=O)[C@@H](NC(=O)N(C)C)C(C)(C)C)cc2)c2ccccc2)cc1)C(C)(C)C` [Example 80, (2S,2′S)-N,N′-[(phenylimino)bis(methanediylbenzene-4,1-diyl)]bis(1-{(2S)-2-[(dimethylcarbamoyl)amino]-3,3-dimethylbutanoyl}pyrrolidine-2-carboxamide)] as the compound, how does the EC50 read?
**A.** Its EC50 is 10 to 100 nM.

**Q.** For `CCN(CC)[C@@H](C(=O)N1CCC[C@H]1C(=O)Nc1ccc(CN(Cc2ccc(NC(=O)[C@@H]3CCCN3C(=O)[C@@H](NC(=O)OC)[C@H]3CCOC3)cc2)c2ccc(F)cc2)cc1)c1ccccc1` [Example 81, methyl {(1S)-2-{(2S)-2-[(4-{[{4-[({(2S)-1-[(2R)-2-(diethylamino)-2-phenylacetyl]pyrrolidin-2-yl}carbonyl)amino]benzy}(4-fluorophenyl)amino]methyl}phenyl)carbamoyl]pyrrolidin-1-yl}-2-oxo-1-[(3R)-tetrahydrofuran-3-yl]ethyl}carbamate], which EC50 is on record?
**A.** Its EC50 is under 1 nM.

**Q.** With `CCN(CC)[C@@H](C(=O)N1CCC[C@H]1C(=O)Nc1ccc(CN(Cc2ccc(NC(=O)[C@@H]3CCCN3C(=O)[C@@H](NC(=O)OC)C(C)(C)C)cc2)c2ccc(F)cc2)cc1)c1ccccc1` [Example 82, N-(methoxycarbonyl)-3-methyl-L-valyl-N-[4-({[4-({1-[(2R)-2-(diethylamino)-2-phenylacetyl]-L-prolyl}amino)benzyl](4-fluorophenyl)amino}methyl)phenyl]-L-prolinamide] as the compound, how does the EC50 read?
**A.** Its EC50 is under 1 nM.

**Q.** Which EC50 does the source give for `CCN(CC)[C@@H](C(=O)N1CCC[C@H]1C(=O)Nc1ccc(CN(Cc2ccc(NC(=O)[C@@H]3CCCN3C(=O)[C@@H](c3ccccc3)N3CCCC3)cc2)c2ccc(F)cc2)cc1)c1ccccc1` [Example 83, (2S)-1-[(2R)-2-(diethylamino)-2-phenylacetyl]-N-(4-{[(4-fluorophenyl){4-[({(2S)-1-[(2R)-2-phenyl-2-pyrrolidin-1-ylacetyl]pyrrolidin-2-yl}carbonyl)amino]benzyl}amino]methyl}phenyl)pyrrolidine-2-carboxamide] here?
**A.** Its EC50 is under 1 nM.

**Q.** Which EC50 does the source give for `CCN(CC)[C@@H](C(=O)N1CCC[C@H]1C(=O)Nc1ccc(CN(Cc2ccc(NC(=O)[C@@H]3CCCN3C(=O)[C@@H](NC(=O)OC)[C@@H](C)OC)cc2)c2ccc(F)cc2)cc1)c1ccccc1` [Example 84, N-(methoxycarbonyl)-O-methyl-L-threonyl-N-[4-({[4-({1-[(2R)-2-(diethylamino)-2-phenylacetyl]-L-prolyl}amino)benzyl](4-fluorophenyl)amino}methyl)phenyl]-L-prolinamide] here?
**A.** The EC50 was under 1 nM.

**Q.** For `O=C(Nc1ccc(CN(Cc2ccc(NC(=O)[C@@H]3CCCN3C(=O)[C@@H](c3ccccc3)N3CCCC3)cc2)c2ccc(F)cc2)cc1)[C@@H]1CCCN1C(=O)[C@@H](c1ccccc1)N1CCCC1` [Example 85, (2S,2′S)-N,N′-{[(4-fluorophenyl)imino]bis(methanediylbenzene-4,1-diyl)}bis{1-[(2R)-2-phenyl-2-pyrrolidin-1-ylacetyl]pyrrolidine-2-carboxamide}], which EC50 is on record?
**A.** The EC50 was under 1 nM.

**Q.** `COC(=O)N[C@H](C(=O)N1CCC[C@H]1C(=O)Nc1ccc(CN(Cc2ccc(NC(=O)[C@@H]3CCCN3C(=O)[C@@H](NC(=O)OC)[C@H]3CCOC3)cc2)c2ccc(F)cc2)cc1)[C@H]1CCOC1` [Example 86, dimethyl {[(4-fluorophenyl)imino]bis[methanediylbenzene-4,1-diylcarbamoyl(2 S)pyrrolidine-2,1-diyl{(1S)-2-oxo-1-[(3R)-tetrahydrofuran-3-yl]ethane-2,1-diyl}]}biscarbamate] was tested. Which EC50 did it give?
**A.** The EC50 was under 1 nM.

**Q.** For `COC(=O)N[C@H](C(=O)N1CCC[C@H]1C(=O)Nc1ccc(CN(Cc2ccc(NC(=O)[C@@H]3CCCN3C(=O)[C@H](NC(=O)[C@@H]3CCCO3)c3ccccc3)cc2)c2ccccc2)cc1)C(C)(C)C` [Example 87, N-(methoxycarbonyl)-3-methyl-L-valyl-N-[4-({phenyl[4-({1-[(2R)-2-phenyl-2-{[(2S)-tetrahydrofuran-2-ylcarbonyl]amino}acetyl]-L-prolyl}amino)benzyl]amino}methyl)phenyl]-L-prolinamide], which EC50 is on record?
**A.** Its EC50 is under 1 nM.

**Q.** How did the EC50 turn out when `COC(=O)N[C@H](C(=O)N1CCC[C@H]1C(=O)Nc1ccc(CN(Cc2ccc(NC(=O)[C@@H]3CCCN3C(=O)[C@H](NC(=O)[C@H]3CCCO3)c3ccccc3)cc2)c2ccccc2)cc1)C(C)(C)C` [Example 88, N-(methoxycarbonyl)-3-methyl-L-valyl-N-[4-({phenyl[4-({1-[(2R)-2-phenyl-2-{[(2R)-tetrahydrofuran-2-ylcarbonyl]amino}acetyl]-L-prolyl}amino)benzyl]amino}methyl)phenyl]-L-prolinamide] was run?
**A.** Its EC50 is under 1 nM.

**Q.** `CCN(CC)[C@@H](C(=O)N1CCC[C@H]1C(=O)Nc1ccc(CN(Cc2ccc(NC(=O)[C@@H]3CCCN3C(=O)[C@@H](c3ccccc3)N(CC)CC)cc2)c2ccc(F)c(F)c2)cc1)c1ccccc1` [Example 89, (2S,2′S)-N,N′-{[(3,4-difluorophenyl)imino]bis(methanediylbenzene-4,1-diyl)}bis{1-[(2R)-2-(diethylamino)-2-phenylacetyl]pyrrolidine-2-carboxamide}] was tested. Which EC50 did it give?
**A.** The EC50 was under 1 nM.

**Q.** With `COC(=O)N[C@H](C(=O)N1CCC[C@H]1C(=O)Nc1ccc(CN(Cc2ccc(NC(=O)[C@@H]3CCCN3C(=O)[C@@H](NC(=O)OC)C(C)(C)C)cc2)c2ccc(F)c(F)c2)cc1)C(C)(C)C` [Example 90, dimethyl ([(3,4-difluorophenyl)imino]bis{methanediylbenzene-4,1-diylcarbamoyl(2S)pyrrolidine-2,1-diyl[(2S)-3,3-dimethyl-1-oxobutane-1,2-diyl]})biscarbamate] as the compound, how does the EC50 read?
**A.** Its EC50 is under 1 nM.
